Measured values: the supplement of paper PMC10307832

What was measured:
Assay in all cases: relative viability (nuclei count vs DMSO), 5 days (fraction); higher = more cells survive
[1] = test system: LCLC-103H
Procedure, shortened: (§1)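 Lung cancer cell lines, seeded in 1536-well plates, were treated the following day by pin tool with a single drug or with five library-drug doses (not always all listed) in √10 steps on top of a fixed anchor-drug dose. Cells were fixed and nuclei stained in one step after 5 days, and nuclei were counted. Relative viability is the nuclei count for treated wells divided by that for vehicle wells, reported as medians of duplicate plates.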

[2] = test system: EPLC-272H
Procedure, shortened: as §1

[3] = test system: NCI-H2405
Procedure, shortened: as §1

[4] = test system: NCI-H2126
Procedure, shortened: as §1

[5] = test system: EMC-BAC-2
Procedure, shortened: as §1

[6] = test system: SW 900
Procedure, shortened: as §1

[7] = test system: NCI-H3122
Procedure, shortened: as §1

[8] = test system: NCI-H1666
Procedure, shortened: as §1

[9] = test system: HCC-44
Procedure, shortened: as §1

[10] = test system: NCI-H23
Procedure, shortened: as §1

[11] = test system: SK-LU-1
Procedure, shortened: as §1

[12] = test system: NCI-H1975
Procedure, shortened: as §1

[13] = test system: LK-2
Procedure, shortened: as §1

[14] = test system: LU99A
Procedure, shortened: as §1

[15] = test system: SW 1573
Procedure, shortened: as §1

[16] = test system: RERF-LC-KJ
Procedure, shortened: as §1

[17] = test system: HCC-827
Procedure, shortened: as §1

[18] = test system: NCI-H1563
Procedure, shortened: as §1

[19] = test system: LXF-289
Procedure, shortened: as §1

[20] = test system: LOU-NH91
Procedure, shortened: as §1

[21] = test system: NCI-H2085
Procedure, shortened: as §1

[22] = test system: ChaGo-K-1
Procedure, shortened: as §1

Compound: COc1cc(N2CCC(C(N)=O)CC2)ccc1Nc1nc(N)c(Cl)c(Nc2ccccc2S(=O)(=O)C(C)C)n1 [HG-5-88-01] + CCNC(=O)c1noc(-c2cc(C(C)C)c(O)cc2O)c1-c1ccc(CN2CCOCC2)cc1 [Luminespib] (partner 0.01 µM)
- relative viability ([1]; first compound 0.04 µM): 1.08
- relative viability ([1]; first compound 0.1265 µM): 1.01
- relative viability ([1]; first compound 0.4 µM): 0.888
- relative viability ([1]; first compound 1.265 µM): 0.894
- relative viability ([1]; first compound 4 µM): 0.879
- relative viability ([2]; first compound 0.04 µM): 0.384
- relative viability ([2]; first compound 0.1265 µM): 0.269
- relative viability ([2]; first compound 0.4 µM): 0.347
- relative viability ([2]; first compound 1.265 µM): 0.181
- relative viability ([2]; first compound 4 µM): 0.204
- relative viability ([3]; first compound 0.04 µM): 0.872
- relative viability ([3]; first compound 0.1265 µM): 0.692
- relative viability ([3]; first compound 0.4 µM): 0.594
- relative viability ([3]; first compound 1.265 µM): 0.457
- relative viability ([3]; first compound 4 µM): 0.673
- relative viability ([4]; first compound 0.04 µM): 0.836
- relative viability ([4]; first compound 0.1265 µM): 0.975
- relative viability ([4]; first compound 0.4 µM): 0.861
- relative viability ([4]; first compound 1.265 µM): 0.699
- relative viability ([4]; first compound 4 µM): 0.57
- relative viability ([5]; first compound 0.04 µM): 1.09
- relative viability ([5]; first compound 0.1265 µM): 1.25
- relative viability ([5]; first compound 0.4 µM): 1.14
- relative viability ([5]; first compound 1.265 µM): 1.12
- relative viability ([5]; first compound 4 µM): 0.892
- relative viability ([6]; first compound 0.04 µM): 0.158
- relative viability ([6]; first compound 0.1265 µM): 0.207
- relative viability ([6]; first compound 0.4 µM): 0.185
- relative viability ([6]; first compound 1.265 µM): 0.157
- relative viability ([6]; first compound 4 µM): 0.186
- relative viability ([7]; first compound 0.04 µM): 0.0748
- relative viability ([7]; first compound 0.1265 µM): 0.11
- relative viability ([7]; first compound 0.4 µM): 0.106
- relative viability ([7]; first compound 1.265 µM): 0.115
- relative viability ([7]; first compound 4 µM): 0.0981
- relative viability ([8]; first compound 0.04 µM): 1.05
- relative viability ([8]; first compound 0.1265 µM): 0.991
- relative viability ([8]; first compound 0.4 µM): 0.948
- relative viability ([8]; first compound 1.265 µM): 0.925
- relative viability ([8]; first compound 4 µM): 0.777
- relative viability ([9]; first compound 0.04 µM): 1.01
- relative viability ([9]; first compound 0.1265 µM): 0.988
- relative viability ([9]; first compound 0.4 µM): 0.915
- relative viability ([9]; first compound 1.265 µM): 0.366
- relative viability ([9]; first compound 4 µM): 0.783
- relative viability ([10]; first compound 0.04 µM): 0.215
- relative viability ([10]; first compound 0.1265 µM): 0.203
- relative viability ([10]; first compound 0.4 µM): 0.225
- relative viability ([10]; first compound 1.265 µM): 0.187
- relative viability ([10]; first compound 4 µM): 0.241
- relative viability ([11]; first compound 0.04 µM): 0.209
- relative viability ([11]; first compound 0.1265 µM): 0.2
- relative viability ([11]; first compound 0.4 µM): 0.196
- relative viability ([11]; first compound 1.265 µM): 0.229
- relative viability ([11]; first compound 4 µM): 0.199
- relative viability ([12]; first compound 0.04 µM): 0.34
- relative viability ([12]; first compound 0.1265 µM): 0.215
- relative viability ([12]; first compound 0.4 µM): 0.35
- relative viability ([12]; first compound 1.265 µM): 0.171
- relative viability ([12]; first compound 4 µM): 0.174
- relative viability ([13]; first compound 0.04 µM): 0.192
- relative viability ([13]; first compound 0.1265 µM): 0.241
- relative viability ([13]; first compound 0.4 µM): 0.205
- relative viability ([13]; first compound 1.265 µM): 0.183
- relative viability ([13]; first compound 4 µM): 0.193
- relative viability ([14]; first compound 0.04 µM): 0.214
- relative viability ([14]; first compound 0.1265 µM): 0.217
- relative viability ([14]; first compound 0.4 µM): 0.288
- relative viability ([14]; first compound 1.265 µM): 0.275
- relative viability ([14]; first compound 4 µM): 0.252
- relative viability ([15]; first compound 0.04 µM): 0.261
- relative viability ([15]; first compound 0.1265 µM): 0.213
- relative viability ([15]; first compound 0.4 µM): 0.194
- relative viability ([15]; first compound 1.265 µM): 0.205
- relative viability ([15]; first compound 4 µM): 0.242
- relative viability ([16]; first compound 0.04 µM): 1.4
- relative viability ([16]; first compound 0.1265 µM): 1.33
- relative viability ([16]; first compound 0.4 µM): 1.25
- relative viability ([16]; first compound 1.265 µM): 1.23
- relative viability ([16]; first compound 4 µM): 0.963
- relative viability ([17]; first compound 0.04 µM): 0.767
- relative viability ([17]; first compound 0.1265 µM): 0.86
- relative viability ([17]; first compound 0.4 µM): 0.575
- relative viability ([17]; first compound 1.265 µM): 0.581
- relative viability ([17]; first compound 4 µM): 0.361
- relative viability ([18]; first compound 0.04 µM): 0.542
- relative viability ([18]; first compound 0.1265 µM): 0.539
- relative viability ([18]; first compound 0.4 µM): 0.476
- relative viability ([18]; first compound 1.265 µM): 0.485
- relative viability ([18]; first compound 4 µM): 0.519
- relative viability ([19]; first compound 0.04 µM): 0.703
- relative viability ([19]; first compound 0.1265 µM): 0.733
- relative viability ([19]; first compound 0.4 µM): 0.698
- relative viability ([19]; first compound 1.265 µM): 0.721
- relative viability ([19]; first compound 4 µM): 0.897
- relative viability ([20]; first compound 0.04 µM): 0.337
- relative viability ([20]; first compound 0.1265 µM): 0.338
- relative viability ([20]; first compound 0.4 µM): 0.331
- relative viability ([20]; first compound 1.265 µM): 0.35
- relative viability ([20]; first compound 4 µM): 0.356
- relative viability ([21]; first compound 0.04 µM): 0.405
- relative viability ([21]; first compound 0.1265 µM): 0.453
- relative viability ([21]; first compound 0.4 µM): 0.407
- relative viability ([21]; first compound 1.265 µM): 0.434
- relative viability ([21]; first compound 4 µM): 0.464
- relative viability ([22]; first compound 0.04 µM): 0.572
- relative viability ([22]; first compound 0.1265 µM): 0.682
- relative viability ([22]; first compound 0.4 µM): 0.516
- relative viability ([22]; first compound 1.265 µM): 0.66
- relative viability ([22]; first compound 4 µM): 0.733
